# Target: T1, Human IDO (Homo sapiens, UniProt P14902)
# T1 construct: High control is Hela cells with IFNγ treatment; endogenous in cells; host or cells: HeLa cells treated with 25 ng/ml IFNγ
# Assay: HeLa cell IDO assay (IFNγ-treated cells, N-formylkynurenine by RapidFire/MS/MS)
# Type: cell-based
# Conditions: 25 ng/ml IFNγ, 200 μM Trp, 48 hours, class symbol
# T1 sequence (P14902 whole entry): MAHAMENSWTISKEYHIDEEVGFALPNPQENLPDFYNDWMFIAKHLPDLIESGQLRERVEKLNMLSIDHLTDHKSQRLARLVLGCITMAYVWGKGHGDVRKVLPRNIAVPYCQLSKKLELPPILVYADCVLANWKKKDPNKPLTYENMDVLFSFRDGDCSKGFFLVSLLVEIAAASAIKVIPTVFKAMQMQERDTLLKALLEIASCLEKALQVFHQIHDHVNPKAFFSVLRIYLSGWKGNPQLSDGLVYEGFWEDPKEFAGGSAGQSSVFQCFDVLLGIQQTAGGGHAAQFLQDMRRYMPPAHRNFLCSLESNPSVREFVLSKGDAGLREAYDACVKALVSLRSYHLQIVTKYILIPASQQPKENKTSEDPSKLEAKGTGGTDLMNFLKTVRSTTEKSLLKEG
row,SMILES,IC50 [nM]
1,Cc1ccc(NC(=O)[C@H]2C[C@]23CC[C@H](c2ccnc4ccc(F)cc42)CC3)cc1 [Compound 1-14],< 100
2,O=C(Nc1cccc(Cl)c1)[C@H]1C[C@]12CC[C@H](c1ccnc3ccc(F)cc31)CC2 [Compound 1-15],100 to 1000
3,O=C(Nc1ccccc1F)[C@H]1C[C@]12CC[C@H](c1ccnc3ccc(F)cc31)CC2 [Compound 1-16],100 to 1000
4,O=C(Nc1cccc(C(F)(F)F)c1)[C@H]1C[C@]12CC[C@H](c1ccnc3ccc(F)cc31)CC2 [Compound 1-17],> 1000
5,O=C(NN1CCCCC1)[C@H]1C[C@]12CC[C@H](c1ccnc3ccc(F)cc31)CC2 [Compound 1-18],> 1000
6,O=C(Nc1ccc(Cl)c(F)c1)[C@H]1C[C@]12CC[C@H](c1ccnc3ccc(F)cc31)CC2 [Compound 1-19],< 100
7,O=C([C@H]1C[C@]12CC[C@H](c1ccnc3ccc(F)cc31)CC2)N1CCC(C(F)(F)F)CC1 [Compound 1-20],> 1000
8,O=C(NCc1ccc(Cl)cc1)[C@H]1C[C@]12CC[C@H](c1ccnc3ccc(F)cc31)CC2 [Compound 1-21],> 1000
9,O=C(Nc1ccc(-n2cccn2)cc1)[C@H]1C[C@]12CC[C@H](c1ccnc3ccc(F)cc31)CC2 [Compound 1-22],100 to 1000
10,O=C(Nc1ccc(Cl)nc1)[C@H]1C[C@]12CC[C@H](c1ccnc3ccc(F)cc31)CC2 [Compound 1-23],< 100
11,"N#Cc1ccc(NC(=O)C2CC23CCC(c2ccnc4ccc(F)cc24)CC3)cc1 (stereo not drawn) [Compound 2-1, N-(4-cyanophenyl)-6-(6-fluoroquinolin-4-yl)spiro[2.5]octane-1-carboxamide]",< 100
12,O=C(Nc1ccccc1Cl)[C@H]1C[C@]12CC[C@H](c1ccnc3ccc(F)cc31)CC2 [Compound 2-2],> 1000
13,O=C(Nc1ccc(Cl)cn1)[C@H]1C[C@]12CC[C@H](c1ccnc3ccc(F)cc31)CC2 [Compound 2-3],100 to 1000
14,O=C(Nc1ccc(C(F)(F)F)cc1)[C@H]1C[C@]12CC[C@H](c1ccnc3ccc(F)cc31)CC2 [Compound 2-4],100 to 1000
15,O=C(Nc1ccc(Cl)cc1F)[C@H]1C[C@]12CC[C@H](c1ccnc3ccc(F)cc31)CC2 [Compound 2-5],< 100
16,O=C(Nc1ccc(F)cn1)[C@H]1C[C@]12CC[C@H](c1ccnc3ccc(F)cc31)CC2 [Compound 2-6],< 100
17,N#Cc1ccc(NC(=O)[C@H]2C[C@]23CC[C@H](c2ccnc4ccc(F)cc42)CC3)nc1 [Compound 3-3],100 to 1000
18,"O=C(Nc1ccc(Cl)cc1)C1CC12CCC(c1ccnc3ccc(F)cc13)CC2 (stereo not drawn) [Compound 5-4, N-(4-chlorophenyl)-6-(6-fluoroquinolin-4-yl)spiro[2.5]octane-1-carboxamide]",100 to 1000
19,O=C(Nc1ccc(Cl)cc1)[C@H]1C[C@]12CC[C@H](c1ccnc3ccc(Cl)cc31)CC2 [Compound 8-4A],< 100
20,N#Cc1ccc2nccc([C@H]3CC[C@@]4(CC3)C[C@@H]4C(=O)Nc3ccc(Cl)cc3)c2c1 [Compound 8-4B],< 100

row,SMILES,IC50 [nM]
1,COc1cc2nccc([C@H]3CC[C@@]4(CC3)C[C@@H]4C(=O)Nc3ccc(Cl)cc3)c2cc1OC [Compound 8-4C],< 100
2,COc1ccc2nccc([C@H]3CC[C@@]4(CC3)C[C@@H]4C(=O)Nc3ccc(Cl)cc3)c2c1 [Compound 8-4D],100 to 1000
3,COc1ccc2ncnc([C@H]3CC[C@@]4(CC3)C[C@@H]4C(=O)Nc3ccc(Cl)cc3)c2c1 [Compound 8-4E],100 to 1000
4,COc1cc2nccc([C@H]3CC[C@@]4(CC3)C[C@@H]4C(=O)Nc3ccc(Cl)cc3)c2cn1 [Compound 8-4F],< 100
5,"O=C(Nc1ccc(Cl)cc1)C1(F)CC12CCC(c1ccnc3ccc(F)cc13)CC2 (stereo not drawn) [Compound 10-4, N-(4-chlorophenyl)-1-fluoro-6-(6-fluoroquinolin-4-yl)spiro[2.5]octane-1-carboxamide]",100 to 1000
6,"O=C(NC1CC12CCN(c1ccnc3ccc(F)cc13)CC2)c1ccc(Cl)cc1 (stereo not drawn) [Compound 13-3, 4-chloro-N-(6-(6-fluoroquinolin-4-yl)-6-azaspiro[2.5]octan-1-yl)benzamide]",100 to 1000
7,"O=C(NC1CCC12CCC(c1ccnc3ccc(F)cc13)CC2)c1ccc(Cl)cc1 (stereo not drawn) [Compound 14-7, 4-chloro-N-(7-(6-fluoroquinolin-4-yl)spiro[3.5]nonan-1-yl)benzamide]",> 1000
8,"O=C(Nc1ccc(Cl)cc1)C1CCC12CCC(c1ccnc3ccc(F)cc13)CC2 (stereo not drawn) [Compound 15-3, N-(4-chlorophenyl)-7-(6-fluoroquinolin-4-yl)spiro[3.5]nonane-1-carboxamide]",> 1000
9,N#Cc1ccc(C(=O)N[C@H]2CC3(CC[C@H](c4ccnc5ccc(F)cc54)CC3)C2)cc1 (stereo partly drawn) [Compound 17-8],< 100
10,O=C(N[C@H]1CC2(CC[C@H](c3ccnc4ccc(F)cc43)CC2)C1)c1ccncc1 (stereo partly drawn) [Compound 17-9],100 to 1000
11,"O=C(NC1CC2(CCN(c3ccnc4ccc(F)cc34)CC2)C1)c1ccc(Cl)cc1 [Compound 18-5, 4-chloro-N-(7-(6-fluoroquinolin-4-yl)-7-azaspiro[3.5]nonan-2-yl)benzamide]",< 100
12,"O=C(Nc1ccc(Cl)cc1)C1CC2(CCN(c3ccnc4ccc(F)cc34)CC2)C1 [Compound 19-3, N-(4-chlorophenyl)-7-(6-fluoroquinolin-4-yl)-7-azaspiro[3.5]nonane-2-carboxamide]",100 to 1000
13,"O=C(NC1CC2(CCN(c3ccnc4ccncc34)CC2)C1)c1ccc(Cl)cc1 [Compound 22-5, N-(7-(1,6-naphthyridin-4-yl)-7-azaspiro[3.5]nonan-2-yl)-4-chlorobenzamide]",> 1000
14,"O=C(NC1(C2CCC(c3ccnc4ccc(F)cc34)CC2)CC1)c1ccc(Cl)cc1 (stereo not drawn) [Compound 23-5A, 4-chloro-N-(1-(4-(6-fluoroquinolin-4-yl)cyclohexyl)cyclopropyl)-benzamide]",< 100
15,"O=C(Nc1ccc(Cl)cc1)C1([C@H]2CC[C@@H](c3ccnc4ccc(F)cc43)CC2)CC1 [Compound 24-5A, N-(4-chlorophenyl)-1-(4-(6-fluoroquinolin-4-yl)cyclohexyl)cyclopropyl-1-carboxamide]",< 100
16,"O=C(Nc1ccc(Cl)cc1)C1([C@H]2CC[C@H](c3ccnc4ccc(F)cc43)CC2)CC1 [Compound 24-5B, N-(4-chlorophenyl)-1-(4-(6-fluoroquinolin-4-yl)cyclohexyl)cyclopropyl-1-carboxamide]",< 100
17,"O=C(Nc1ccc(Cl)cc1)C1(C2CCN(c3ccnc4ccc(F)cc34)CC2)CC1 [Compound 26-8, N-(4-chlorophenyl)-1-[1-(6-fluoroquinolin-4-yl)piperidin-4-yl]cyclopropane-1-carboxamide]",< 100
18,"O=C(NC1(C2CCN(c3ccnc4ccc(F)cc34)CC2)CC1)c1ccc(Cl)cc1 [Compound 27-3, 4-chloro-N-[1-[1-(6-fluoroquinolin-4-yl)piperidin-4-yl]cyclopropyl]benzamide]",100 to 1000
19,"O=C(Nc1ccc(Cl)cc1)C1(C2CCC(c3ccnc4ccncc34)CC2)CC1 (stereo not drawn) [Compound 28-5, 1-(4-(1,6-naphthyridin-4-yl)cyclohexyl)-N-(4-chlorophenyl)cyclopropane-1-carboxamide]",< 100
